In US5866377A, “Aminooligosaccharide derivative and process for preparing the same” (Chong Kun Dang Corporation, priority 1994, dated 1999):
pIC50: −log10 of the molar value.

What was measured:
amylase = experiment: Inhibition of amylase activity; type: biochemical; settings: 0.25M phosphate buffer pH 7.0, starch substrate, 37° C., absorbance at 660 nm; 30 min; read-out: half(50%) inhibition ratio for amylase activity(IC50)
Method: An enzyme solution(hereinafter referred to as `solution A`) containing amylase dissolved in 0.25M phosphate buffer(pH 7.0), 0.25M phosphate buffer solution(pH 7.0)(hereinafter referred to as `solution B`) and 0.04 (w/v) % starch solution (hereinafter referred to as `solution C`) were prepared, respectively. Then, 0.05 ml of solution B containing CK-4416 dissolved in solution B, 0.1 ml of solution B and 0.05 ml of solution B were combined to incubate at 37° C. for 5 min, and further incubated for 30 min after the addition of 0.5 ml of solution C. After […], absorbance at 660 nm was deter-mined for CK-4416 sample(T) and control(C) which is free of sample.
Inhibition ratio=(C-T)/C×100

Solubility = type: physicochemical
Source text: soluble in water and ethanol insoluble in benzene and normal hexane

[1] = system: Gram-positive bacterial strains; experiment: Antibacterial activity, paper disc method, Gram-positive strains; type: cell-based; settings: 1 mg/ml sample
Method: (§1) Antibacterial activities for Gram-positive and negative bacterial strains were determined with 1 mg/ml of CK-4416 sample, by employing paper disc method.

[2] = system: Comamonas terrigena(ATCG 8461); experiment: Antibacterial activity, paper disc method, Gram-negative strain; type: cell-based; settings: 1 mg/ml sample, read-out: inhibitory zone
Method: To four of 500 ml Erlenmeyer flasks was addled 100 ml of a medium for seed culture(pH 6.5) containing glucose 1 (w/v) %, dextrin 1 (w/v) %, NZ-amine(type A) 0.5 (w/v) %, yeast extract 0.5 (w/v) % and calcium carbonate 0.1 (w/v) %, and sterilized at 120° C. for 15 min. 1 platinum loop of slant culture of Streptomyces sp. CK-4416 which was obtained from a subculture, was inoculated to each of four flasks and incubated under shaking at 27° C. for 3 days. Then, 100 ml of culture media(pH 6.5) containing soluble starch 3 (w/v) %, soybean powder 1.5 (w/v) %, corn steep liquor 1.5 (w/v) %, polypeptone 0.2 (w/v) %, Na2 S2 O3 0.1 (w/v) %, calcium carbonate 0.5 (w/v) %, cobalt chloride 0.0001 (w/v) % was added to 200 of 500 ml Erlenmeyer flasks and sterilized at 120° C. for 30 min. 2 (v/v) % of seed culture was inoculated to the media and incubated at 27° C. for 3 days under shaking at 240 rpm. CK-4416 was quantitatively assayed by the determination of antimicrobial activity employing a test organism Comamonas terrigena(ATCC 8461) in accordance with conventional paper disc method. After 3 days culture, pH and yield were determined as 7.2 and 0.06 mg/ml, respectively.
as §1

[3] = Acidic, neutral or basic properties; type: physicochemical
Source text: 13. Acidic, neutral or basic properties:

blood glucose level = experiment: Lowering of sugar level in blood after oral starch load; type: in vivo; settings: male SD rats fasted 12 hrs, 1 hr after administration, glucose oxidase method
Method: To two groups of 5 male SD rats fasted for 12 hrs, 1.5 g/kg of starch was orally administered, concurrently with 40 mg/kg and 80 mg/kg of samples. Then, blood was taken from the rats after 1 hr from administration, and glucose level in blood was determined by glucose oxidase method and compared with control group which has not taken the CK-4416 sample.

Compound: OCC1OC(OC2C(CO)OC(OC3C(CO)OC(OC4C(CO)OC(OC5C(CO)OC(O)C(O)C5O)C(O)C4O)C(O)C3O)C(O)C2O)C(O)C(O)C1NC1C(O)C(O)C(O)C2(CO)OC12 (single isomer, unassigned) [CK-4416]
- pIC50 (amylase): 5.80
- Solubility (Solubility; in benzene and normal hexane): insoluble
- Solubility (Solubility; in water and ethanol): soluble
- Antibacterial activity [1]: no activity
- zone of inhibition at 1000 µg/mL [2]: 24.8 mm
- Acidic, neutral or basic properties [3]: weakly basic
- Blood glucose level (blood glucose level; 40 mg/kg oral with 1.5 g/kg starch): 97.5 ± 14.3
- Blood glucose level (blood glucose level; 80 mg/kg oral with 1.5 g/kg starch): 87.5 ± 11.3
